Here are results for eleven compounds from ChEMBL document CHEMBL1201862, “PubChem BioAssay data set” (2004).

The structures appear in SMILES notation. Where a name gives a salt, the structure may show the parent alone. The source made the active and inactive calls. Some results are limits rather than exact numbers.

Assay [1] deals with 5-hydroxytryptamine receptor 1A (Homo sapiens, UniProt P08908). The assay is classed as functional.
For assay [2], the target named is T1, Short transient receptor potential channel 4 (Mus musculus, UniProt Q9QUQ5).
T1 sequence (Q9QUQ5 whole entry): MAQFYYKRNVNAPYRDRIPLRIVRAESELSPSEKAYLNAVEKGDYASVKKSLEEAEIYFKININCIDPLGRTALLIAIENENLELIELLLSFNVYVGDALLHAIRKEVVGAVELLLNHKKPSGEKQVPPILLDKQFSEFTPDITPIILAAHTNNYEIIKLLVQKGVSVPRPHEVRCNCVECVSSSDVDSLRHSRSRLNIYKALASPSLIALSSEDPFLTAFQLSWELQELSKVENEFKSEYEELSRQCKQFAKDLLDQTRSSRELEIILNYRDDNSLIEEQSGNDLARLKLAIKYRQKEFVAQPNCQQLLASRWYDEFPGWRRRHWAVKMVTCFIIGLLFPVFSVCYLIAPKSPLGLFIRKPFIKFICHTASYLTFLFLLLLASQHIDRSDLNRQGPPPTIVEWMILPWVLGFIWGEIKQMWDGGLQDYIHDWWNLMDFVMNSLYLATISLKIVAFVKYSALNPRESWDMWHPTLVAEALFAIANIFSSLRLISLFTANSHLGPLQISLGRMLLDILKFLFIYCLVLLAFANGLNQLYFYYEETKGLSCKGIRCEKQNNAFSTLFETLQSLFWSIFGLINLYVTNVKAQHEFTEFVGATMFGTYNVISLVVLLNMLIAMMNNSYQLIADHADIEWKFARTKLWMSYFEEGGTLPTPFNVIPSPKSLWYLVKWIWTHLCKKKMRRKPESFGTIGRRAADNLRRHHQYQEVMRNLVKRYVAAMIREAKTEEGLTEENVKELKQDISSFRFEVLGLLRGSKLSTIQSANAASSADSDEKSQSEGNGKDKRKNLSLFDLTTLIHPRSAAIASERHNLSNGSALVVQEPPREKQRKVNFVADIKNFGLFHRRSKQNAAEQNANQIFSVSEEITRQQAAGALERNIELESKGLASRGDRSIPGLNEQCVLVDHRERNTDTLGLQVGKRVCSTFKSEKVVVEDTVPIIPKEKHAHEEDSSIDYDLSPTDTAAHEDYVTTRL
The assay is described as follows: potentiation of DAMGO-evoked TRPC4 calcium signal – cell-based, HEK293 TRPC4/mu-opioid, Fluo-4 calcium, EC20 DAMGO, dose response (AID 434941).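 Note: HEK293 cells coexpressing TRPC4 and mu opioid receptor stimulated by EC20 DAMGO.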 The assay is classed as functional.

Assay [3] deals with T2, Voltage-dependent T-type calcium channel subunit alpha-1H (Homo sapiens, UniProt O95180). It is filed as functional.
T2 sequence (O95180 whole entry): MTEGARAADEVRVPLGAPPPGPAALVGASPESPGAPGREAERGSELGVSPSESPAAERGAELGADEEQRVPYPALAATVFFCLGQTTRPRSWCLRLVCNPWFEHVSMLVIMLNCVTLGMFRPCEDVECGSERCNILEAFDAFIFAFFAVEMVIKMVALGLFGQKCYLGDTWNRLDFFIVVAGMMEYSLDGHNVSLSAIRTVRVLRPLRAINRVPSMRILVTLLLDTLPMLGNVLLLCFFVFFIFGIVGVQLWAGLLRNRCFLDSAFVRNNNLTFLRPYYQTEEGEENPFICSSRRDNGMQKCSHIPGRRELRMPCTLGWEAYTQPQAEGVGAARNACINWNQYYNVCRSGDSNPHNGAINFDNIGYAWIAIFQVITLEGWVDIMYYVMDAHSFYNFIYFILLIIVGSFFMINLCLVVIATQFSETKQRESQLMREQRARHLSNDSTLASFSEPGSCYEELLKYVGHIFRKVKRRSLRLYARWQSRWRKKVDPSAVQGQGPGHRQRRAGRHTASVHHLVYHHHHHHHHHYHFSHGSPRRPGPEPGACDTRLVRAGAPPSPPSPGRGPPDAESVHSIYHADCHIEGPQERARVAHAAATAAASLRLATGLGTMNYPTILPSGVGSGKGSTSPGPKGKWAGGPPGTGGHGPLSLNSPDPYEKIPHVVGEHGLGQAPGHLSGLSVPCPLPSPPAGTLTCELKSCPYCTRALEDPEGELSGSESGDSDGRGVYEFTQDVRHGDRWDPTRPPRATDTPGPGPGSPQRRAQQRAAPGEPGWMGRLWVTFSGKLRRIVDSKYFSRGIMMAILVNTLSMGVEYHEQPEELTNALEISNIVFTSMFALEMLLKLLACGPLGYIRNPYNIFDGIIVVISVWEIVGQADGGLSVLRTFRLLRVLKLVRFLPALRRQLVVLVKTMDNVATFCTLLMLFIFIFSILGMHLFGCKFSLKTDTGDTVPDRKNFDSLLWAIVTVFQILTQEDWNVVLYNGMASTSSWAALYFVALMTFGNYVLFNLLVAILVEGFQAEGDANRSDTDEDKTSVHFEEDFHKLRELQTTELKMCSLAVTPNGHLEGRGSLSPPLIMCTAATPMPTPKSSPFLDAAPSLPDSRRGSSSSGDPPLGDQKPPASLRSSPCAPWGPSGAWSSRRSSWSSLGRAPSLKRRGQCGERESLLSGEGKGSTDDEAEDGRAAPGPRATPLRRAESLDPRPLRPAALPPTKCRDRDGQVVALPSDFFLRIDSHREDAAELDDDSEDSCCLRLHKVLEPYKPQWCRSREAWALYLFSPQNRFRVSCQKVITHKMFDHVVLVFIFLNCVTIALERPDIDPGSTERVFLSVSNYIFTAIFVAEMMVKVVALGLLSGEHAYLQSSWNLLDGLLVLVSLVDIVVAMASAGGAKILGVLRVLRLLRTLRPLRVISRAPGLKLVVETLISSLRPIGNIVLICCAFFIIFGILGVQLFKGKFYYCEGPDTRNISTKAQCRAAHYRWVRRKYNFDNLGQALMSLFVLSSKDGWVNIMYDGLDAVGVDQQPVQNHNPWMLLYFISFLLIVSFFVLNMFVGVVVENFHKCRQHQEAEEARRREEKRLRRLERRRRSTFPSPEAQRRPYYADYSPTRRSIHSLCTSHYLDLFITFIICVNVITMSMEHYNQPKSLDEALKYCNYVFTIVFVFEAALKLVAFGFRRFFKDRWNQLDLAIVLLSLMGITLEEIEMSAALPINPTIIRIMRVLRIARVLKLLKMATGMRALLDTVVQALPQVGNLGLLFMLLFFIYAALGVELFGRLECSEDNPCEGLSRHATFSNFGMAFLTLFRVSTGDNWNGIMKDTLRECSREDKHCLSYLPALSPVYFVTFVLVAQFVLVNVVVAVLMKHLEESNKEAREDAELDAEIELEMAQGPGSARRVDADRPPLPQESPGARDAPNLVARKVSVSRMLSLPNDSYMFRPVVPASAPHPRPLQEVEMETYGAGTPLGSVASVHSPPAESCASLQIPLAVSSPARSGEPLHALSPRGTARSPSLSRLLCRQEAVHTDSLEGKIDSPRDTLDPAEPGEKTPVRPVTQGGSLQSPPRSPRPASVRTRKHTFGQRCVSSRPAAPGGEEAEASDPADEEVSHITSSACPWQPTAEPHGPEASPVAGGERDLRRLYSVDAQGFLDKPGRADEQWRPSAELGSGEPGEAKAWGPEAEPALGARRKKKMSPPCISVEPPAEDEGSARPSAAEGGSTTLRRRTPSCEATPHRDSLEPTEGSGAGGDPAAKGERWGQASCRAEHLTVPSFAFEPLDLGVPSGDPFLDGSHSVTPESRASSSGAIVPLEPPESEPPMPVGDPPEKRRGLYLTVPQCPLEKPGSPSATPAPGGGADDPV
The target of assay [4] is T3, G-protein coupled receptor 55 (Homo sapiens, UniProt Q9Y2T6). Nature of the assay: inhibition of LPI-stimulated GPR55 beta-arrestin translocation – imaging, U2OS, beta-arrestin-GFP, LPI agonist, primary screen (AID 2013).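 Note: antagonist potency measured as reduced agonist-driven arrestin aggregation.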 The assay is classed as functional.
T3 sequence (Q9Y2T6 whole entry): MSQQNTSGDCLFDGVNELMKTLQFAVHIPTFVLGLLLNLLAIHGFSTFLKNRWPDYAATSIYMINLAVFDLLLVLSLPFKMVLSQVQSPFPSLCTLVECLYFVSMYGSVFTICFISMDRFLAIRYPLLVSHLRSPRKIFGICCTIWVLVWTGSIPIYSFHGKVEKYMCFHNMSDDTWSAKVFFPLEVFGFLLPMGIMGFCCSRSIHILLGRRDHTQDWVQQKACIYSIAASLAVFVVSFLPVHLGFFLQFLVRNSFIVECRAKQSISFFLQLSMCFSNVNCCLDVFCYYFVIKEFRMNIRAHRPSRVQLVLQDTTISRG
The target of assay [5] is T4, G-protein coupled receptor 35 (Homo sapiens, UniProt Q9HC97). Nature of the assay: SAR analysis of Agonists of the GPR35 Receptor using an Image-Based Assay - Set 3. [Related pubchem assays (depositor defined):AID1961, AID1965]. It is filed as functional.
T4 sequence (Q9HC97 whole entry): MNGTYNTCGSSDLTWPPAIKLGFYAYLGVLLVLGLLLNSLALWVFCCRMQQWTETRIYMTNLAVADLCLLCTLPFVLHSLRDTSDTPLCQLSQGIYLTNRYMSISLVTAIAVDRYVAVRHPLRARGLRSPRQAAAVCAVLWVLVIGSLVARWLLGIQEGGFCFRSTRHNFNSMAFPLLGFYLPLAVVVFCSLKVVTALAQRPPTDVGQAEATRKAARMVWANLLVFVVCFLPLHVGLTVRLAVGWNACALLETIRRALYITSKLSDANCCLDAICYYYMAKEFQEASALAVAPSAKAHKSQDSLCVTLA
In assay [6] the target is T4, G-protein coupled receptor 35. The assay is described as follows: SAR analysis of Antagonists of the GPR35 Receptor using an Image-Based Assay - Set 4. [Related pubchem assays (depositor defined):[…]]. It is filed as functional.
For assay [7], the target named is T5, Cannabinoid receptor 2 (Homo sapiens, UniProt P34972). Nature of the assay: SAR analysis of antagonists of the Cannabinoid Receptor 2 using an Image-Based Assay - Set 2. [Related pubchem assays (depositor defined):AID1961, AID1965]. The assay is classed as functional.
T5 sequence (P34972 whole entry): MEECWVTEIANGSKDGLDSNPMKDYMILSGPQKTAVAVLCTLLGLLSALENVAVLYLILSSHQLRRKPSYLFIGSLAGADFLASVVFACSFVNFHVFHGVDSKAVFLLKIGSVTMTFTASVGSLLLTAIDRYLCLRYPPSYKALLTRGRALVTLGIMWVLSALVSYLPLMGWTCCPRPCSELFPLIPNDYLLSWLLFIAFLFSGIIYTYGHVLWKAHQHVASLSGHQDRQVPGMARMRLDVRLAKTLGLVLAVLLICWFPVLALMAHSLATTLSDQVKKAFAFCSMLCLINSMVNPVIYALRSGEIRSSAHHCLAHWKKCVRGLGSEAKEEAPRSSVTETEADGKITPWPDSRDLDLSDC
For assay [8], the target named is T5, Cannabinoid receptor 2. Nature of the assay: SAR analysis of agonists of the Cannabinoid Receptor 2 using an Image-Based Assay - Set 2. [Related pubchem assays (depositor defined):AID1961, AID1965]. The assay is classed as functional.
For assay [9], the target named is T6, Cannabinoid receptor 1 (Homo sapiens, UniProt P21554). The assay is described as follows: SAR analysis of antagonists of the Cannabinoid Receptor 1 using an Image-Based Assay - Set 3. [Related pubchem assays (depositor defined):AID1961, AID1965]. The assay is classed as functional.
T6 sequence (P21554 whole entry): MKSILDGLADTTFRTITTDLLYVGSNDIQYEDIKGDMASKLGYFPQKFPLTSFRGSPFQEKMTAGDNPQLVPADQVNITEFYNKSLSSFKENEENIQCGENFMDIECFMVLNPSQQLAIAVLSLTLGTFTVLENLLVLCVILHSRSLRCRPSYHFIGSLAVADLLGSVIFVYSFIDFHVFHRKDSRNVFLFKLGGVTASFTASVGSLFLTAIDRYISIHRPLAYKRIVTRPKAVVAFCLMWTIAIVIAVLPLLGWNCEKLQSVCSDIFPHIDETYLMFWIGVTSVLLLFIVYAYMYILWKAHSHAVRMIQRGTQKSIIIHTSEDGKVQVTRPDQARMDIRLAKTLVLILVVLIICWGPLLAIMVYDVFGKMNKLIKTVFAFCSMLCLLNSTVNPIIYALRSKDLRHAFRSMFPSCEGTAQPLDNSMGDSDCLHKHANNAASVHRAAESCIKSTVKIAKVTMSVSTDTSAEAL
The target in assay [10] is T6, Cannabinoid receptor 1. Nature of the assay: SAR analysis of agonists of the Cannabinoid Receptor 1 using an Image-Based Assay - Set 3. [Related pubchem assays (depositor defined):AID1961, AID1965]. It is filed as functional.
Assay [11] concerns the target T3, G-protein coupled receptor 55. The assay is described as follows: SAR analysis of selective Agonists of GPR55 using an Image-Based Assay - Set 2. [Related pubchem assays (depositor defined):AID1961, AID1965]. The assay is classed as functional.
In assay [12] the target is T7, E3 ubiquitin-protein ligase XIAP (Homo sapiens, UniProt P98170). The assay is described as follows: Counter Screen using XIAP-Bir3 for Chemical Antagonists of Bir1/2 domains of IAP-family anti-apoptotic proteins. [Related pubchem assays (depositor defined):AID1018, AID1449, AID1514, AID1638, AID1749, AID1750, AID488957, AID488963].
T7 sequence (P98170 whole entry): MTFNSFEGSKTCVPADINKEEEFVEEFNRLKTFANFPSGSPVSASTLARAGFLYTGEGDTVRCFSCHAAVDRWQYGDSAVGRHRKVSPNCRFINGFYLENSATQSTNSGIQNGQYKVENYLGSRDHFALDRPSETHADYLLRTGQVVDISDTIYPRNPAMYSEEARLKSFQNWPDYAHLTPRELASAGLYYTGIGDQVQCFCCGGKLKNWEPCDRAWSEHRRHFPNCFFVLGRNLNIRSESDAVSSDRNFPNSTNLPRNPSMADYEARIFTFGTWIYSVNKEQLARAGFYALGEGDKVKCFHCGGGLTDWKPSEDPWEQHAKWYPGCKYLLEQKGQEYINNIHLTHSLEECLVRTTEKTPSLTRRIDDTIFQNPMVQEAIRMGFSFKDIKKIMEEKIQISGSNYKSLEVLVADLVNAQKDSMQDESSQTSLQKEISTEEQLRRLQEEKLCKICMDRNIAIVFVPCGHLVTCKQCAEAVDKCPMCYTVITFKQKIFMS
Assay [13] concerns the target T7, E3 ubiquitin-protein ligase XIAP. The assay is described as follows: small molecules displacing peptide from XIAP – biochemical, IAP family, fluorescence polarization (AID 1018). The assay is classed as functional.
Assay [14] has as its target T8, Neuropeptides B/W receptor type 1 (Homo sapiens, UniProt P48145).
T8 sequence (P48145 whole entry): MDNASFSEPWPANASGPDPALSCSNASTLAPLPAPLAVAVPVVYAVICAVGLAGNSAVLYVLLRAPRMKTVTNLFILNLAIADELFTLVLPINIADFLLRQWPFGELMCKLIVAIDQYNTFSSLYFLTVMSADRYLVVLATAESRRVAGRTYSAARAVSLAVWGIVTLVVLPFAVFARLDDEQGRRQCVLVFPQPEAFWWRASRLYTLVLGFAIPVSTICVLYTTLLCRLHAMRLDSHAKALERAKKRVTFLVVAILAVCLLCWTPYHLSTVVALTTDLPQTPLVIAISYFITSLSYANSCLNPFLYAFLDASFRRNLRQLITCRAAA
The assay is described as follows: human NPBW1 receptor blockade, IC50 – cell-based, fluorescence, dose response, late-stage follow-up (AID 463251). The assay is classed as functional.

For assay [15], the target named is Melanin-concentrating hormone receptor 1 (Homo sapiens, UniProt Q99705). Nature of the assay: Late-stage fluorescence-based counterscreen for antagonists of the G-protein coupled receptor 7 (GPR7): cell-based dose response assay to identify antagonists of the melanin-concentrating hormone receptor 1 (MCHR1). [Related pubchem assays (depositor defined):AID1861, AID1880, AID1952, AID2148, AID2251, AID2257, AID485339]. The assay is classed as functional.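 Note: stimulated with 30 nM MCH peptide agonist.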

Assay [16] has as its system Trypanosoma cruzi. The assay is described as follows: anti-trypanosomal activity in host cells – cell-based, plate reader, dry powder, set 3, dose response (AID 493197). The assay is classed as functional.
The nature of assay [17]: NIH/3T3 cell viability loss – mouse embryonic fibroblasts, dry powder, set 2, cytotoxicity control, dose response (AID 493247). It is filed as functional, cell-based. To be noted: Fibroblast.
Assay [18] deals with Dual specificity protein phosphatase 3 (Homo sapiens, UniProt P51452). Nature of the assay: SAR VHR1 Fluorescent Assay for In Vitro dose response studies Set 2. [Related pubchem assays (depositor defined):AID1654, AID1661, AID1878]. It is filed as functional.
Chain of Dual specificity protein phosphatase 3 (P51452 whole entry): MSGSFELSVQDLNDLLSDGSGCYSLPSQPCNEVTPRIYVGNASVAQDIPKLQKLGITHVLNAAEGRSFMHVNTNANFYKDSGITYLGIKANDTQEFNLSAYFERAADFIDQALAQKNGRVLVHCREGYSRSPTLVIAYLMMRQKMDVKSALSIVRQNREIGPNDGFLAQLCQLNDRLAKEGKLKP
In assay [19] the target is T9, Tyrosine-protein phosphatase non-receptor type 7 (Homo sapiens, UniProt P35236).
T9 sequence (P35236 whole entry): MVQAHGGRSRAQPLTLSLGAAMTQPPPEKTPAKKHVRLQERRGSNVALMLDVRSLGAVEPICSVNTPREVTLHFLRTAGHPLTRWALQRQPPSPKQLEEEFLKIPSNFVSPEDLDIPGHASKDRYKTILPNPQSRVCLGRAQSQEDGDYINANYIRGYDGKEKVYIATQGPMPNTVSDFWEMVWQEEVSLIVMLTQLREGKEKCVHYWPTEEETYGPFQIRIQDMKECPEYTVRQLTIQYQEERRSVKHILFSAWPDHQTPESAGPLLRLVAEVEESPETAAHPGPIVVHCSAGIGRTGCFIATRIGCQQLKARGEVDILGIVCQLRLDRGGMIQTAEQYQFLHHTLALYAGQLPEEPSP
Nature of the assay: SAR analysis of chemical inhibitors of HePTP using a Fluorescent assay - Set 2. [Related pubchem assays (depositor defined):AID1059, AID1077, AID1661, AID2085, AID521]. It is filed as functional.

In assay [20] the target is Alkaline phosphatase, placental type (Homo sapiens, UniProt P05187). The assay is described as follows: human placental alkaline phosphatase inhibition – biochemical, luminescence, confirmation (AID 1512). It is filed as functional.
The target in assay [21] is T2, Voltage-dependent T-type calcium channel subunit alpha-1H. Nature of the assay: human CACNA1H calcium influx blockade – cell-based, synthetic library set 2, HEK293 HH8, Fluo-4, SAR follow-up (AID 493023). The assay is classed as functional.
The target of assay [22] is T3, G-protein coupled receptor 55. The assay is described as follows: selective activators of receptor GPR55 – imaging, U2OS cells, beta-arrestin-GFP redistribution, primary screen (AID 1961). The assay is classed as functional.
For assay [23], the target named is Polyadenylate-binding protein 1 (Homo sapiens, UniProt P11940). Nature of the assay: PABP inhibition in translation initiation, SAR follow-up (AID 435018). It is filed as functional.
Assay [24] has as its target Eukaryotic translation initiation factor 4H (Homo sapiens, UniProt Q15056). Nature of the assay: inhibitors of translation initiation factor eIF4H – SAR follow-up (AID 435011). The assay is classed as functional.
In assay [25] the target is Troponin, cardiac muscle (Homo sapiens, UniProt P19429+P45379+P63316). The assay is described as follows: Fluorescence-based biochemical high throughput dose response assay for activators of the calcium sensitivity of cardiac Regulated Thin Filaments (RTF). [Related pubchem assays (depositor defined):AID493008, AID493018, AID504382, AID504383]. The assay is classed as protein-complex assay.

Consider `Cc1cc(C(C)(C)C)c(O)c(C)c1CC1=NCCN1` [OXYMETAZOLINE HYDROCHLORIDE], for which the EC50 in assay [1] is 0.07 µM (active); in assay [2] it was 3.35 µM (active).
With `CCN(c1ccccc1)S(=O)(=O)c1ccc(NCC2COc3ccccc3O2)nc1` (stereo not given), the EC50 in [3] is 7.97 µM (active). Further, the IC50 in assay [4] is 6.56 µM (active).
Turning to `COc1ccc(-c2csc(NC(=O)CSc3nnc4c(C)cc5cc6c(cc5n34)OCO6)n2)cc1`, the EC50 in assay [5], in [8], in [10] and in assay [11] was > 32 µM (inactive) throughout. For the same compound, the IC50 in [6], in assay [7] and in assay [9] was > 32 µM (inactive) throughout.
Take `C=CCNC(=O)/C(C#N)=C/c1cn(-c2ccccc2)nc1-c1ccc(OC)c([N+](=O)[O-])c1`: the IC50 in [12] is > 100 µM (inactive); in [13] it was > 100 µM (not active).
Turning to `CC(C)c1ccc(-n2ncc(Cl)c(Oc3cccc(N(C)C)c3)c2=O)cc1`, the IC50 is 1.6 µM (active) in assay [14] and 3.1 µM (active) in assay [15].
`O=C(Cc1cccnc1)N/N=C/c1ccc([N+](=O)[O-])o1`: the AC50 in assay [16] was 0.131 µM (active); in [17], 23.1 µM (active).
For `Cc1ccc(NC(S)=NNC(=O)c2cn(C)nc2C)cc1`, the IC50 in assay [18], in assay [19] and in assay [20] was > 100 µM (inactive) in each case.
Turning to `CC(C)(C)CCN1CCC[C@@H](NC(=O)c2ccc(Cl)cc2Cl)C1`, the EC50 in [21] is 10 µM (active).
As to `COc1cc2c(cc1NC(=O)CSc1ccc(Cl)cc1)oc1ccccc12`, in assay [22], the EC50 is 20.7 µM (inactive).
In the case of `COc1ccc([N+](=O)[O-])cc1NC(=O)COC(=O)c1ccccc1C(=O)c1ccccc1`, the IC50 in assay [23] and in assay [24] was > 100 µM (inactive) each time.
Regarding `O=C(O)CCC(=O)Nc1cc(C(F)(F)F)cc(C(F)(F)F)c1`, the EC50 in assay [25] was > 71.4 µM (inactive).
